Tests used:
in vitro = conditions: human, CC50 (uM) [SG]
[1] = test system: Huh7 cells expressing a subgenomic RNA replicon of Con1 (genotype 1b) sequence origin; assay: microbe, parasite or virus in culture; conditions: Hepatitis C virus; for IC90: Huh-7; for IC50: Huh-7, read-out: IC50 (uM) [SG]

SMILES | CC50 (in vitro) [µM] | IC90 [1] [µM] | IC50 [1] [µM]
CSc1ccc(Oc2ccc(S(N)(=O)=O)cc2CNC[C@H](C)O)cc1C [Compound 69, (S)-3-((2-hydroxypropylamino)methyl)-4-(3-methyl-4-(methylthio)phenoxy)benzenesulfonamide] | > 50 | 10.4 | 3.54
CSc1ccc(Oc2ccc(S(N)(=O)=O)cc2CN(C)C[C@@H](C)O)cc1C [Compound 70, (R)-3-(((2-hydroxypropyl)(methyl)amino)methyl)-4-(3-methyl-4-(methylthio)phenoxy)benzenesulfonamide] | > 50 | 23.9 | 7.01
CSc1ccc(Oc2ccc(S(N)(=O)=O)cc2CN(C)C[C@H](C)O)cc1C [Compound 71, (S)-3-(((2-hydroxypropyl)(methyl)amino)methyl)-4-(3-methyl-4-(methylthio)phenoxy)benzenesulfonamide] | > 50 | 13.4 | 4.96
CSc1cc(S(N)(=O)=O)c(Oc2cc(Br)ccc2CN(C)C)cc1C [Compound 72, 2-(5-bromo-2-((dimethylamino)methyl)phenoxy)-4-methyl-5-(methylthio)benzenesulfonamide] | 45 |  | 16.3
CSc1ccc(Oc2ccc(S(N)(=O)=O)cc2CN2CCCCC2)cc1C [Compound 73, 4-(3-methyl-4-(methylthio)phenoxy)-3-(piperidin-1-ylmethyl)benzenesulfonamide] | 37.9 | 13.6 | 4.7
CSc1ccc(Oc2ccc(S(N)(=O)=O)cc2CN2CCCN(C)CC2)cc1C [Compound 74, 3-((4-methyl-1,4-diazepan-1-yl)methyl)-4-(3-methyl-4-(methylthio)phenoxy)benzenesulfonamide] | 35.9 | 16.1 | 7.31
CNCc1cc(S(N)(=O)=O)ccc1Oc1ccc(SC)c(OC)c1 [Compound 75, 4-(3-methoxy-4-(methylthio)phenoxy)-3-((methylamino)methyl)benzenesulfonamide] | > 50 |  | 11.9
CNCc1cc(S(N)(=O)=O)ccc1Oc1ccc([N+](=O)[O-])c(C)c1 [Compound 76, 4-(3-methyl-4-nitrophenoxy)-3-((methylamino)methyl)benzenesulfonamide] | > 50 |  | 31
CSc1ccc(N2CN(C)Cc3cc(Br)ccc32)cc1C [Compound 78, 6-bromo-3-methyl-1-(3-methyl-4-(methylthio)phenyl)-1,2,3,4-tetrahydroquinazoline] | 24.9 | 15.5 | 13.7
CSc1ccc(Oc2ccc(S(N)(=O)=O)cc2CNCCCN(C)C)cc1C [Compound 79, 3-((3-(dimethylamino)propylamino)methyl)-4-(3-methyl-4-(methylthio)phenoxy)benzenesulfonamide] | 17.8 | 9.66 | 3.44
CSc1ccc(Oc2ccc(S(N)(=O)=O)cc2CN2CCOCC2)cc1C [Compound 82, 4-(3-methyl-4-(methylthio)phenoxy)-3-(morpholinomethyl)benzenesulfonamide] | > 50 |  | 20.8
CNCc1cc(S(N)(=O)=O)ccc1Oc1ccc(C)c(C)c1 [Compound 84, 4-(3,4-dimethylphenoxy)-3-((methylamino)methyl)benzenesulfonamide] | 46.7 | 39.6 | 28.1
CSc1ccc(Oc2ccc(S(N)(=O)=O)cc2CN2CC[C@H](F)C2)cc1C [Compound 85, (S)-3-((3-fluoropyrrolidin-1-yl)methyl)-4-(3-methyl-4-(methylthio)phenoxy)benzenesulfonamide] | > 50 |  | 7.22
CSc1ccc(Oc2ccc(S(N)(=O)=O)cc2C=C(C)C)cc1C [Compound 86, 4-(3-methyl-4-(methylthio)phenoxy)-3-(2-methylprop-1-enyl)benzenesulfonamide] | > 50 |  | 34.8
CSc1ccc(Oc2ccc(S(N)(=O)=O)cc2CN2CCN(c3ccccc3F)CC2)cc1C [Compound 87, 3-((4-(2-fluorophenyl)piperazin-1-yl)methyl)-4-(3-methyl-4-(methylthio)phenoxy)benzenesulfonamide] | 30.2 |  | 23.5
CSc1ccc(Oc2ccc(S(N)(=O)=O)cc2CN2CC[C@H](N(C)C)C2)cc1C [Compound 88, (S)-3-((3-(dimethylamino)pyrrolidin-1-yl)methyl)-4-(3-methyl-4-(methylthio)phenoxy)benzenesulfonamide] | 39.4 | 13.2 | 4.15
CSc1ccc(Oc2ccc(S(N)(=O)=O)cc2CN2CCC(N3CCOCC3)CC2)cc1C [Compound 89, 4-(3-methyl-4-(methylthio)phenoxy)-3-((4-morpholinopiperidin-1-yl)methyl)benzenesulfonamide] | > 50 | 21.3 | 6.62
CSc1ccc(Oc2ccc(S(N)(=O)=O)cc2CN2CCN(C3CCN(C)CC3)CC2)cc1C [Compound 90, 4-(3-methyl-4-(methylthio)phenoxy)-3-((4-(1-methylpiperidin-4-yl)piperazin-1-yl)methyl)benzenesulfonamide] | 9.1 | 7.48 | 2.03

Reference: patent US20100009970A1, “COMPOSITIONS AND METHODS FOR TREATMENT OF VIRAL DISEASES” (Combinatorx (Singapore) Pte. Ltd., priority 2008, published 2010)
